The assay concerns the target T1, MIF (Homo sapiens, UniProt P14174).
T1 sequence (P14174 2-115 limits assumed): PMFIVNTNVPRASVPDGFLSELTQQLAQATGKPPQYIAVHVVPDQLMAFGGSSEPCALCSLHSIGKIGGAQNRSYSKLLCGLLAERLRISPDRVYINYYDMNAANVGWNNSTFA
The assay is described as follows: MIF tautomerase assay using pHPP as substrate. It counts as biochemical. The conditions noted are these: inhibition of the MIF enzyme in vitro; mean of multiple test results; read-out: Tautomerase Inhibition pIC50 (converted). The gist of the method: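 Mean pIC50 derived from initial rates (absorbance progress-curve slopes) of MIF-catalyzed ketonic-to-enolic pHPP conversion, read as enol–borate complex. Reactions contained 1.5 mM substrate and 3 nM enzyme (final), 200 mM boric acid stock buffer, BSA and CHAPS, pH 6.0.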

Each structure is given as a SMILES string.

`Nc1nc(N2CCC(O)(c3ccc(O)cc3)CC2)nc2c1ncn2-c1ccncc1` [Example 155, 1-(6-amino-9-(pyridin-4-yl)-9H-purin-2-yl)-4-(4-hydroxyphenyl)piperidin-4-ol]: the IC50 is 10 to 97.7 nM. For `Nc1nc(N2CC=C(c3ccc(O)cc3)CC2)nc2c1ncn2-c1ccncc1` [Example 156, 4-(1-(6-amino-9-(pyridin-4-yl)-9H-purin-2-yl)-1,2,3,6-tetrahydropyridin-4-yl)phenol] the value was above 10000 nM; for `Nc1nc(N2CCC(c3ccc(O)cc3)CC2)nc2c1ncn2-c1ccncc1` [Example 157, 4-(1-(6-amino-9-(pyridin-4-yl)-9H-purin-2-yl)piperidin-4-yl)phenol], 10 to 97.7 nM; for `OCCn1cnc2c(-n3ncc4ccccc43)nc(N3CCC(O)(c4ccc(O)cc4)CC3)nc21` [Example 158, 1-(9-(2-hydroxyethyl)-6-(1H-indazol-1-yl)-9H-purin-2-yl)-4-(4-hydroxyphenyl)piperidin-4-ol], 100 to 977 nM.

As to `OCCn1cnc2c(-n3ncc4ccccc43)nc(N3CC=C(c4ccc(O)cc4)CC3)nc21` [Example 159, 4-(1-(9-(2-hydroxyethyl)-6-(1H-indazol-1-yl)-9H-purin-2-yl)-1,2,3,6-tetrahydropyridin-4-yl)phenol], the IC50 was above 10000 nM. `Cc1nc(N2CCC(O)(c3ccc(O)cc3)CC2)nc2c1ncn2CCCCC(=O)O` [Example 160, 5-(2-(4-hydroxy-4-(4-hydroxyphenyl)piperidin-1-yl)-6-methyl-9H-purin-9-yl)pentanoic acid]: the IC50 was above 10000 nM.

For `O=C(O)Cn1cnc2c(-n3ncc4ccccc43)nc(N3CCC(O)(c4ccccc4)C3)nc21` (centres unmarked) [Example 161, 2-(2-(3-hydroxy-3-phenylpyrrolidin-1-yl)-6-(1H-indazol-1-yl)-9H-purin-9-yl)acetic acid], the IC50 was above 10000 nM. On to `COC(=O)CNc1nc(N2CCN(c3ccc(O)cc3)CC2)nc2c1ncn2-c1ccncc1` [Example 162, Methyl (2-(4-(4-hydroxyphenyl)piperazin-1-yl)-9-(pyridin-4-yl)-9H-purin-6-yl)glycinate], for which the IC50 is 100 to 977 nM. Regarding `O=C(O)CNc1nc(N2CCN(c3ccc(O)cc3)CC2)nc2c1ncn2-c1ccncc1` [Example 163, (2-(4-(4-hydroxyphenyl)piperazin-1-yl)-9-(pyridin-4-yl)-9H-purin-6-yl)glycine], the IC50 is 10 to 97.7 nM.

Take `O=C(O)C1CCN(c2nc(N3CCN(c4ccc(O)cc4)CC3)nc3c2ncn3-c2ccncc2)C1` (centres unmarked) [Example 164, 1-(2-(4-(4-hydroxyphenyl)piperazin-1-yl)-9-(pyridin-4-yl)-9H-purin-6-yl)pyrrolidine-3-carboxylic acid]: the IC50 is 10 to 97.7 nM. As to `CN(CCC(=O)O)c1nc(N2CCN(c3ccc(O)cc3)CC2)nc2c1ncn2-c1ccncc1` [Example 165, 3-((2-(4-(4-hydroxyphenyl)piperazin-1-yl)-9-(pyridin-4-yl)-9H-purin-6-yl)(methyl)amino)propanoic acid], the IC50 was 10 to 97.7 nM. For `CN(CC(=O)O)c1nc(N2CCN(c3ccc(O)cc3)CC2)nc2c1ncn2-c1ccncc1` [Example 166, 3N-(2-(4-(4-hydroxyphenyl)piperazin-1-yl)-9-(pyridin-4-yl)-9H-purin-6-yl)-N-methylglycine] the value was 10 to 97.7 nM; for `O=C(O)C1CCCN1c1nc(N2CCN(c3ccc(O)cc3)CC2)nc2c1ncn2-c1ccncc1` (centres unmarked) [Example 167, (2-(4-(4-hydroxyphenyl)piperazin-1-yl)-9-(pyridin-4-yl)-9H-purin-6-yl)proline], 10 to 97.7 nM.

For the molecule `O=C(O)CCN(CCO)c1nc(N2CCN(c3ccc(O)cc3)CC2)nc2c1ncn2-c1ccncc1` [Example 168, 3-((2-hydroxyethyl)(2-(4-(4-hydroxyphenyl)piperazin-1-yl)-9-(pyridin-4-yl)-9H-purin-6-yl)amino)propanoic acid], the IC50 was 10 to 97.7 nM. Regarding `CCC(CO)N(C)c1nc(N2CCN(c3ccc(O)cc3)CC2)nc2c1ncn2-c1cccnc1` (centres unmarked) [Example 169, 4-(4-(6-((1-hydroxybutan-2-yl)(methyl)amino)-9-(pyridin-3-yl)-9H-purin-2-yl)piperazin-1-yl)phenol], the IC50 is 10 to 97.7 nM.

For `O=C(O)C1CCCN(c2nc(N3CCN(c4ccc(O)cc4)CC3)nc3c2ncn3-c2ccncc2)C1` (centres unmarked) [Example 170, 1-(2-(4-(4-hydroxyphenyl)piperazin-1-yl)-9-(pyridin-4-yl)-9H-purin-6-yl)piperidine-3-carboxylic acid], the IC50 was 10 to 97.7 nM.

Take `Oc1ccc(N2CCN(c3nc(N4C[C@H](O)[C@@H](O)C4)c4ncn(-c5ccncc5)c4n3)CC2)cc1` [Example 171, (3S,4S)-1-(2-(4-(4-hydroxyphenyl)piperazin-1-yl)-9-(pyridin-4-yl)-9H-purin-6-yl)pyrrolidine-3,4-diol]: the IC50 was 10 to 97.7 nM. Take `CC1(C(=O)O)CCCN1c1nc(N2CCN(c3ccc(O)cc3)CC2)nc2c1ncn2-c1ccncc1` (centres unmarked) [Example 172, 1-(2-(4-(4-hydroxyphenyl)piperazin-1-yl)-9-(pyridin-4-yl)-9H-purin-6-yl)-2-methylpyrrolidine-2-carboxylic acid]: the IC50 was 10 to 97.7 nM. As for `OCC(CO)Nc1nc(N2CCN(c3ccc(O)cc3)CC2)nc2c1ncn2-c1ccncc1` [Example 173, 2-((2-(4-(4-hydroxyphenyl)piperazin-1-yl)-9-(pyridin-4-yl)-9H-purin-6-yl)amino)propane-1,3-diol], the IC50 was 10 to 97.7 nM. For `O=C1CN(c2nc(N3CCN(c4ccc(O)cc4)CC3)nc3c2ncn3-c2ccncc2)CCN1` [Example 174, 4-(2-(4-(4-hydroxyphenyl)piperazin-1-yl)-9-(pyridin-4-yl)-9H-purin-6-yl)piperazin-2-one] the value was 10 to 97.7 nM; for `CN1CCN(c2nc(N3CCN(c4ccc(O)cc4)CC3)nc3c2ncn3-c2ccncc2)CC1=O` [Example 175, 4-(2-(4-(4-hydroxyphenyl)piperazin-1-yl)-9-(pyridin-4-yl)-9H-purin-6-yl)-1-methylpiperazin-2-one], 10 to 97.7 nM; for `OC[C@@H](COCc1ccccc1)Nc1nc(N2CCN(c3ccc(O)cc3)CC2)nc2c1ncn2-c1ccncc1` [Example 176, (S)-4-(4-(6-((1-(benzyloxy)-3-hydroxypropan-2-yl)amino)-9-(pyridin-4-yl)-9H-purin-2-yl)piperazin-1-yl)phenol], 100 to 977 nM. On to `CC(CO)(CO)Nc1nc(N2CCN(c3ccc(O)cc3)CC2)nc2c1ncn2-c1ccncc1` [Example 177, 2-((2-(4-(4-hydroxyphenyl)piperazin-1-yl)-9-(pyridin-4-yl)-9H-purin-6-yl)amino)-2-methylpropane-1,3-diol], for which the IC50 is 100 to 977 nM.

For the molecule `Oc1ccc(N2CCN(c3nc(N4CCNCC4)c4ncn(-c5ccncc5)c4n3)CC2)cc1` [Example 178, 4-(4-(6-(piperazin-1-yl)-9-(pyridin-4-yl)-9H-purin-2-yl)piperazin-1-yl)phenol], the IC50 is 100 to 977 nM. For `CN1CCN(c2nc(N3CCN(c4ccc(O)cc4)CC3)nc3c2ncn3-c2ccncc2)CC1` [Example 179, 4-(4-(6-(4-methylpiperazin-1-yl)-9-(pyridin-4-yl)-9H-purin-2-yl)piperazin-1-yl)phenol] the value was 1000 to 9770 nM; for `CN(CC(=O)O)c1nc(N2CCN(c3ccccc3)CC2)nc2c1ncn2-c1ccncc1` [Example 180, N-methyl-N-(2-(4-phenylpiperazin-1-yl)-9-(pyridin-4-yl)-9H-purin-6-yl)glycine], above 10000 nM; for `O=C(O)C1CCN(c2nc(N3CCN(c4cccnc4)CC3)nc3c2ncn3-c2ccncc2)C1` (centres unmarked) [Example 181, 1-(2-(4-(pyridin-3-yl)piperazin-1-yl)-9-(pyridin-4-yl)-9H-purin-6-yl)pyrrolidine-3-carboxylic acid], above 10000 nM. Take `O=C(O)C1CCN(c2nc(N3CCN(c4ccccc4)CC3)nc3c2ncn3-c2ccncc2)C1` (centres unmarked) [Example 182, 1-(2-(4-phenylpiperazin-1-yl)-9-(pyridin-4-yl)-9H-purin-6-yl)pyrrolidine-3-carboxylic acid]: the IC50 was above 10000 nM. For `CCC(CO)N(C)c1nc(N2CCN(c3ccc(O)cc3)CC2)nc2c1ncn2-c1cccnc1` (centres unmarked) [Example 183, 4-(4-(6-((1-hydroxybutan-2-yl)(methyl)amino)-9-(pyridin-3-yl)-9H-purin-2-yl)piperazin-1-yl)phenol], the IC50 was above 10000 nM. For the molecule `Oc1ccc(N2CCN(c3ncc4ncn(-c5ccncc5)c4n3)CC2)cc1` [Example 184, 4-(4-(9-(pyridin-4-yl)-9H-purin-2-yl)piperazin-1-yl)phenol], the IC50 is 10 to 97.7 nM.

Turning to `Cc1nc(N2CCC(O)(c3ccc(O)cc3)CC2)nc2c1ncn2-c1ccc(C#N)cc1` [Example 185, 4-(2-(4-hydroxy-4-(4-hydroxyphenyl)piperidin-1-yl)-6-methyl-9H-purin-9-yl)benzonitrile], the IC50 was above 10000 nM. The value for `CC1CN(c2nc(N)c3ncn(-c4ccncc4)c3n2)CCN1c1ccc(O)cc1` (centres unmarked) [Example 186, 4-(4-(6-amino-9-(pyridin-4-yl)-9H-purin-2-yl)-2-methylpiperazin-1-yl)phenol] was 100 to 977 nM; that for `Nc1nc(N2CCN(c3ccc(O)cc3)CC2)nc2c1ncn2C1CCCCO1` (centres unmarked) [Example 187, 4-(4-(6-amino-9-(tetrahydro-2H-pyran-2-yl)-9H-purin-2-yl)piperazin-1-yl)phenol] was above 10000 nM; that for `Nc1nc(N2CCN(c3ccc(O)cc3)CC2)nc2c1ncn2C1CCNCC1` [Example 188, 4-(4-(6-amino-9-(piperidin-4-yl)-9H-purin-2-yl)piperazin-1-yl)phenol] was above 10000 nM. For `Nc1ccc(N2CCN(c3nc(N)c4ncn(-c5ccncc5)c4n3)CC2)nc1` [Example 190, 2-(4-(5-aminopyridin-2-yl)piperazin-1-yl)-9-(pyridin-4-yl)-9H-purin-6-amine] the value was above 10000 nM.

For the origin of these results see patent US20220144838A1, “Compounds as Inhibitors of Macrophage Migration Inhibitory Factor” (NANJING IMMUNOPHAGE BIOTECH CO., LTD., priority 2019, published 2022).
